Assay [1] concerns thalamic neurons. Put plainly: Drug effect on evoked EPSPs (eEPSP) in thalamic slices, current clamp. The class given is cell-based, mouse. As to conditions: DPCPX 100 nM. The method, then: Thalamic slices (300 μm) from 14-18 day old mouse pups (FVB/NJ mice; Jackson Laboratory) were cut on a Vibratome (TPI) in an ice-cold cutting solution containing (in mM): 2.5 KCl, 1.25 NaH2PO4, 10 MgSO4, 5 CaCl2, 10 glucose, 26 NaHCO3, 230 sucrose and gassed with 5% CO2 and 95% O2. Slices were incubated for a minimum of 1 hr in a slice solution containing (in mM): 126 NaCl, 2.5 KCl, 1.25 NaH2PO4, 2 MgCl2, 2 CaCl2, 10 glucose, and 26 NaHCO3, pH 7.4, and gassed with 5% CO2 and 95% O2 at room temperature. The slices were transferred to a recording chamber (1.5 ml) perfused with aCSF at room temperature or 32° C. Whole-cell current clamp recordings were obtained using a 700B Multiclamp amplifier (Axon Instruments) (Jiang et al., “A Kainate Receptor Increases The Efficacy of Gabaergic Synapses,” Neuron 30:503-13 (2001); Tian et al., “An Astrocytic Basis of Epilepsy,” Nat Med 11:973-81 (2005), which are hereby incorporated by reference in their entirety). Concentric bipolar stimulating electrodes (FHC) were placed ˜100-400 μm ventromedial to the patched VL thalamic neuron. Stimulation was delivered through a constant isolated current source (ISO-Flex stimulus isolator with a Master-8-vp stimulator; AMPI) and consisted of monophasic 60 μs square pulses of varying amplitude (15, 25, 50 μA) and frequency (25, 75, 125, 200 Hz). Based upon maximum current amplitude and the surface area of the electrode, it is estimated that the maximum charge density was in the range of ˜1-10 μC/cm^2. The artifacts of the HFS signal were blanked and staggered to allow continuous observation of the 2.5 Hz signal (Anderson et al., “Selective Attenuation of Afferent Synaptic Transmission as a Mechanism of Thalamic Deep Brain Stimulation-Induced Tremor Arrest,” J Neurosci 26:841-50 (2006), which is hereby incorporated by reference in its entirety). Adenosine measurements were detected using needle shaped electrode (Pt/Ir wire) biosensors (Sarissa Biomedical). Calibration was carried out at the beginning and end of each slice experiment in the bath above the slice. Measurements were obtained ˜100 μm from the stimulation electrode in the thalamic slice. […].
To further analyze the role of adenosine in HFS, the effect of perfusion with an aCSF containing 1-100 μM adenosine in thalamic slices was studied. […]. […] The AMPA receptor antagonist, CNQX could not be tested due to its direct effect on EPSCs (Wang et al., “Astrocytic Ca(2+) Signaling Evoked by Sensory Stimulation in Vivo,” Nat Neurosci 9:816-23 (2006), which is hereby incorporated by reference in its entirety) (FIG. 3G). […]. […]

In assay [2] the test system is thalamic neurons. Put plainly: HFS-induced membrane depolarization of thalamic neurons. Type of assay: cell-based, mouse. As to conditions: thalamic slices during HFS.
The test system of assay [3] is harmaline-induced tremor. The assay is described as follows: DBS therapeutic window in harmaline-induced tremor. The class given is in vivo. As to conditions: APV and CNQX 10 mg/kg each i.p.; DPCPX 4 mg/Kg i.p. The method, then: Harmaline was administed i.p. 20 min prior to DBS (20-30 mg/kg) (Wilms et al., “Animal Models of Tremor,” Mov Disord 14:557-71 (1999); Martin et al., “Harmaline-Induced Tremor as a Potential Preclinical Screening Method for Essential Tremor Medications,” Mov Disord 20:298-305 (2005), which are hereby incorporated by reference in their entirety). […] For electrode and microdialysis implantation, mice were anaesthetized with a mixture of Ketamine (60 mg/kg) and Xylazine (10 mg/kg) and placed into a stereotactic frame. The skull was exposed and concentric bipolar microelectrodes (SNE-100, KOPF) or microdialysis probes (Bioanalytical Systems, Inc.) were implanted into the ventrolateral thalamic nucleus at the following coordinates: AP: −1.4 mm; ML: ±0.9 mm; DV: −3.7 mm. The electrodes or microdialysis probes were attached to the skull with dental cement. […] Tremor was recorded by either EMG electrodes placed in the occipital muscles or by the Convuls-1 pressure transducer (Columbus Instruments) in awake freely moving animals. […]
. […] The minimal efficient current amplitude of DBS was determined by methodically changing the stimulation parameters (FIG. 4C). […]

Assay [4] has as its system thalamic neurons. The assay is described as follows: HFS-induced depression of eEPSPs in thalamic slices, pharmacology. The class given is cell-based, mouse.
In assay [5] the target is T1, adenosine deaminase (Homo sapiens, UniProt P00813).
T1 sequence (P00813 1-363): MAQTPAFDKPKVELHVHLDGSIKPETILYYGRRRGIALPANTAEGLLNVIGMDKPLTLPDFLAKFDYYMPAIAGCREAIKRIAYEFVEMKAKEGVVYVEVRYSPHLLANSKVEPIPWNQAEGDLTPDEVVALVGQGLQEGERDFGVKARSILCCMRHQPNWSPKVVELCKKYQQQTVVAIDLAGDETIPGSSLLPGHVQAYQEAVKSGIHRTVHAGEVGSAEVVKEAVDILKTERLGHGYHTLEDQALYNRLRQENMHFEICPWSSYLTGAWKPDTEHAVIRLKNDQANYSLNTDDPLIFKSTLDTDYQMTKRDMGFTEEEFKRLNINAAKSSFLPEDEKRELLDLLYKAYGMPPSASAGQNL
As to conditions: at 27° C.; cited from earlier work.

Assay [6] concerns the target T2, Ecto-5′-nucleotidase CD73 (Rattus norvegicus, UniProt P21588).
T2 sequence (P21588 29-551): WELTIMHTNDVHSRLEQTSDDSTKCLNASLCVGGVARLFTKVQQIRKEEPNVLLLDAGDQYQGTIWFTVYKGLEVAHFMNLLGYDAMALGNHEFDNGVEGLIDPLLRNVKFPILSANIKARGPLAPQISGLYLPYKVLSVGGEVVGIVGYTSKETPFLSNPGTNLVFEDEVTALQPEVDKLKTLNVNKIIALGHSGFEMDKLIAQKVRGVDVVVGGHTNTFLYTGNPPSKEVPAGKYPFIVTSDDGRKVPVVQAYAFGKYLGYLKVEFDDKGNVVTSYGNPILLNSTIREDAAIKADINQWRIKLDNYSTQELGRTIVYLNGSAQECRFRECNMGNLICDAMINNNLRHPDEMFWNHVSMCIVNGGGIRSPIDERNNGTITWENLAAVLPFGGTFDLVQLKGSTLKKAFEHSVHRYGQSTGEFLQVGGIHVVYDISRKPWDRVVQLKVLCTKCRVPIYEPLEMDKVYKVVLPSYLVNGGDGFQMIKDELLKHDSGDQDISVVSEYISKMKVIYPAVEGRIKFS
As to conditions: Sato et al., rat hearts; cited from earlier work.

Assay [7] has as its target Ecto-ATPase. As to conditions: Chen et al.; cited from earlier work.
Assay [8] has as its target Ecto-ATPase. As to conditions: Yegutkin et al., rat liver plasma membranes; cited from earlier work.
For assay [9], the target named is Ecto-ATPase. As to conditions: range over Crack et al.; Dowd et al.; Stout et al.; cited from earlier work.
Assay [10] deals with Rat Parotid Ecto-ATPase. As to conditions: Dowd et al.; cited from earlier work.

Results on 5 compounds are retold here after patent US20100284984A1, “ADENOSINE AND ITS MIMETICS. MODULATORS, TRANSPORT INHIBITORS, AND RECEPTOR AGONISTS AS A THERAPEUTIC TOOL TO REPLACE OR IMPROVE THE EFFICACY OF DEEP BRAIN STIMULATION” (University of Rochester, priority 2007, published 2010).

Entries after “also recorded” stand apart in the source; their conditions may differ.

With `CCCn1c(=O)c2[nH]c(C3CCCC3)nc2n(CCC)c1=O` [DPCPX], the “effect on adenosine-induced reduction of eEPSPs” value in [1] is given as “blocked the effect of adenosine; also recorded: reversibly attenuated the reduction”. Further, the “effect on HFS-induced depolarization” value in [2] is listed as “no effect”. In [3], the “effect on the ability of DBS to reduce harmaline-induced tremor” value was “involuntary movements rather than tremor reduction” and the “threshold for DBS-induced involuntary movements” value was “developed involuntary movements at stimulation intensities below the therapeutic range”. Also, the “time for EPSPs to recover to pre-stimulation values after HFS” value in assay [4] (300 nM, directly stimulated pathways) was 12.4 ± 6.1 s. Besides, the “effect on HFS-induced depression of eEPSPs, heterosynaptic pathways” value in assay [4] (HFS 125 Hz, 250 μA, 10 sec, 32° C., separate electrodes) is listed as “attenuated the depression of eEPSPs; also recorded: potently attenuated the HFS-induced suppression of eEPSPs”. Besides, the “effect on HFS-induced depression of eEPSPs, homosynaptic (directly stimulated) pathways” value in assay [4] (same electrode for HFS and eEPSPs) was “reduced depression of eEPSPs after, but not during, HFS; also recorded: attenuated this reduction following, but not during HFS”.

`CC(=O)Nc1ccc(O)cc1` [acetaminophen]: the inhibition constant (Ki) in [5] is 126 µM.

Regarding `COc1ccc(Cl)cc1C(=O)NCCc1ccc(S(=O)(=O)NC(=O)NC2CCCCC2)cc1` [giberclamide], the IC50 in [6] is 10.5 µM.

Consider `Cc1ccc(C(=O)Nc2ccc(S(=O)(=O)O)c3cc(S(=O)(=O)O)cc(S(=O)(=O)O)c23)cc1NC(=O)c1cccc(NC(=O)Nc2cccc(C(=O)Nc3cc(C(=O)Nc4ccc(S(=O)(=O)O)c5cc(S(=O)(=O)O)cc(S(=O)(=O)O)c45)ccc3C)c2)c1` [suramin], for which, in assay [7], the inhibition constant Ki is 44 µM. Moreover, the “pIC 50” value in assay [8] is given as 4.57. Further, the IC50 in assay [9] was 46 to 114 µM.

As to reactive blue, the “pIC 50” value in assay [8] is listed as 4.3. Besides, the IC50 in [10] was 28 µM.

As a reminder, the Ki is a measure of affinity in units of concentration, obtained from inhibition or displacement. As a reminder, the IC50 is the concentration that gives 50% inhibition.
